Measured values published in patent US20060105974A1, “Conjugates of photosensitizers and oligonucleotides for selective photochemiotherapy” (priority 2002, published 2006).
{Ce6} = chlorin e6 photosensitizer conjugate

Columns and labels:
[1] = tested on: GEO human colon cancer cells; assay: MTT cell viability assay after oligonucleotide incubation with or without irradiation; type: cell-based; settings: one day after incubation, no irradiation
Experimental: To test the possibility of inhibiting cell growth by targeting the EGFR mRNA with Ω-sensitizers, mixed backbone oligonucleotides similar to those described in Example 1 were prepared, using methods described in Example 5. The sequences tested were:
GEO human colon cancer cells known to express approximately about 40000 functional EGFRs were purchased from ATCC (Rockville, Md., USA) and grown as described. Culture was performed in the presence of 10% fetal calf serum (FCS) and penicillin/streptomycin at 37° C. and 6% CO2 in a humid environment. For measurement purposes, the cells were subcultured in 48-well dishes (Costar 3548, Integra Biosiences, Cambridge, Mass., USA) to give 10^5 cells/well 72 hours prior to incubation with the oligonucleotides. […]
The cell viability was tested by means of an MTT assay. This technique allows quantification of cell survival after cytotoxic insult by testing the enzymatic acitivity of the mitochondria. […] The optical density of the product was quantified by its absorption at 540 nm using a 96-well ELISA plate reader (iEMS Reader MF, Labsystems, USA). […] The absorption of each residue was determined at 540 nm using the plate reader. The absorbance readings from treated cells was divided by the absorbance readings from the control cells in order to calculate the fraction of surviving cells.

[2] = tested on: target sequence (mam gene sequence); assay: Ω-sensitizer-induced photo-oxidation of DHR123 as a function of target concentration; type: biochemical; settings: 10 J/cm^2
Description: In order to test the possibility of using nano particles as the quenching moiety, oligonucleotides labeled with a photosensitive moiety at the 3′ terminus, where labeled at the 5′ terminus with amino modified gold nanoparticles. The mam gene sequence S′-CGGATGAAACTCTGAGCAATGTCTGCAGTTCTGTGAGCCAAAG-3′ (GeneBank accession No. AF015224) was coupled to the complementary stem sequences CCA AGC and GCT TGG at its 5′ and 3′ termini, respectively. The sequence was constructed using fully automated DNA synthesis as described in Example 1. The 3′ end contained an amino group, while the 5′ end was equipped with a six carbon spacer thiol group protected by a trityl moiety (Glen Research, Sterling, Va.) using standard methods. Following cleavage with 28% ammonium hydroxide, oligonucleotides were washed and purified as described above. The 3′ end photosensitive moiety labeled oligonucleotide was prepared and purified using the NHS ester of pheophorbide a as described in Example 1. Then the trityl protection group was removed by adding 0.15M silver nitrate solution to the labeled oligonucleotide for 1 hour. To this mixture 0.15M dithiothreitol (DTT) was added for 10 minutes. After spinning at 10000 rpm the supernatant was transferred to another tube. 400 pmol of this oligonucleotide were then suspended in 180 μl of water and immediately reacted with 6 nmol of monomaleimido gold particles (Ø=1.4 nm) (Nanoprobes) in aqueous 20 mM NaH2PO4, 150 mM NaCl, 1 mM ethylenediamine […] (EDTA) Buffer, pH 6.4, containing 10% isopropanol at 4° C. for 24 hours.
To the solution containing the Ω-sensitizer, 5′ (gold particle)-S—(CH2)6— CCAAGCCGGATGAAACTCTGAGCAATGTCTGCAGTTCTGTGAGCCAAAGCTTGG-(pheophorbide a)-3′, target and one base pair mismatch oligonucleotides were added at different concentrations. After adding appropriate quantities of DHR123 (see Example 1), the solutions were irradiated at 405 nm with electromagnetic radiation doses of 10 J/cm^2 and the fluorescence of rhodamine 123 was measured as described above as a function of the target concentration.

[3] = tested on: sense oligonucleotides; assay: Photo-oxidation of DHR123 to RH123 by Ω-sensitizers with sense and mismatch oligonucleotides; type: biochemical; settings: irradiation 405±5 nm; for photochemically induced oxidation of DHR123: in the presence of the sense oligonucleotide; for reduction of oxidation capacity (photo-oxidation of DHR123), one base pair mismatch versus sense oligonucleotide / reduction of oxidation capacity (photo-oxidation of DHR123), two base pair mismatches versus sense oligonucleotide: RH123 fluorescence at 529 nm; for reduction of oxidation capacity (photo-oxidation of DHR123), two base pair mismatches versus sense oligonucleotide: two base pair mismatch sense oligonucleotide
Experimental: (§1) The selective photosensitizing action of the different Ω-sensitizers described in Example 1 was tested in vitro against sense oligonucleotides, and sense oligonucleotides having one and two base mismatches, respectively. For this purpose oligonucleotides with sequences 5′-CAAAGGGAGGAAACCTAGCA-3′ (sense), 5′-CAAAGGGAGGTAACCTAGCA-3′ (sense 1 bp mismatch), and 5′-CAAAGGGAAGTAACCTAGCA-3′ (sense 2 bp mismatch) were synthesized using standard automated phosphoramidite chemistry. Oligonucleotides were dissolved in 2 ml of a solution containing 10 mM Tris-HCl and 2 mM MgCl2 to give a final concentration of 0.8 μM in a quartz cuvette. To this solution 1 ml Dihydrorhodamine 123 (DHR123) (Molecular Probes, Eugene, USA) (40 μM) dissolved in 10 mM Tris-HCl was added. DHR123 is a non-fluorescent molecule that in the presence of oxygenating species undergoes oxygenation to give the fluorescent dye rhodamine 123 having an absorption maximum at 507 nm and a fluorescence maximum at 529 nm. 1 ml of Ω-sensitizer (800 nM) containing solution was added and the final solution was stored in the dark at 37° C. for 20 minutes. Then the solution was irradiated at 405±5 nm with electromagnetic radiation from a filtered Hg-Arc lamp. The RH123 fluorescence intensity at 529 nm was measured every 60 seconds using a Perkin Elmer spectrofluorometer (Model LS50B, Perkin Elmer, Rotkreuz, CH)

[4] = tested on: sense oligonucleotide; assay: Intrinsic fluorescence emission of the Ω-sensitizer after excitation at 405 nm with sense and mismatch oligonucleotides; type: binding; settings: excitation 405 nm; two base pair mismatch oligonucleotide versus sense oligonucleotide
Experimental: as §1, with “1 ml of Ω-sensitizer (800 nM) containing solution was added and the final solution was stored in the dark at 37° C. for 20 minutes. Then the solution was irradiated at 405±5 nm with electromagnetic radiation from a filtered Hg-Arc lamp.” left out
Furthermore, the intrinsic fluorescence of the pheophorbide a labeled Ω-sensitizer was used to further underline the selectivity of these new photochemotherapeutic agents.

Substance | photochemically induced oxidation of DHR123 [3] | reduction of oxidation capacity (photo-oxidation of DHR123), one base pair mismatch versus sense oligonucleotide [3] | reduction of oxidation capacity (photo-oxidation of DHR123), two base pair mismatches versus sense oligonucleotide [3] [fold] | further results
5′ (chlorin e6) -GC*G A*CT GA*C TGC CA*A C*TA TG*A* ACA T*C*G C-(chlorin e6)3′ [b)] | – | – | – | cell viability (mitochondrial activity, MTT) in the dark [1]: only slightly reduced
5′ (gold particle)-S—(CH2)6— CCAAGCCGGATGAAACTCTGAGCAATGTCTGCAGTTCTGTGAGCCAAAGCTTGG-(pheophorbide a)-3′ (CCAAGCCGGATGAAACTCTGAGCAATGTCTGCAGTTCTGTGAGCCAAAGCTTGG; hairpin, 5' gold particle via hexyl thiol, 3' pheophorbide a, partial phosphorothioate, further chemistry not given here) | – | – | – | concentrations of the one base pair mismatched oligonucleotide at which photodynamic action can be observed ([2]; 405 nm): only very high concentrations; concentration of the target sequence at which the RH123 fluorescence intensity reaches its maximum ([2]; irradiated at 405 nm, RH123 fluorescence at 529 nm): about 0.5 μM; RH123 fluorescence with oligonucleotide not complementary to the TCS ([2]; one base pair mismatched oligonucleotide at about 0.5 μM, 405 nm): no fluorescence is detectable
5′-(chlorin)-GCGATGCTAGGTTTCCTCCCTTTGTCGC-(chlorin)-3′ (GCGATGCTAGGTTTCCTCCCTTTGTCGC; DNA, linkages osossooooossooooooooossssso (s phosphorothioate, o phosphodiester), 5' {Ce6}, 3' {Ce6}, methylation of C not given here) [chlorin e6 labeled Ω-sensitizer] | most efficient | about 5 fold | ~20 | –
5′-(pheo a)-GCGATGCTAGGTTTCCTCCCTTTGTCGC-(pheo a)-3′ (GCGATGCTAGGTTTCCTCCCTTTGTCGC; pheophorbide a at both ends, partial phosphorothioate, pattern not given here) [pheophorbide a labeled Ω-sensitizer] | most efficient | about 5 fold | ~20 | fluorescence of the photosensitiser pheophorbide a (intrinsic fluorescence of the Ω-sensitizer) [4]: significant reduction; RH123 fluorescence intensities achieved, compared with the chlorin e6 labeled Ω-sensitizer ([3]; fluorescence at 529 nm): higher fluorescence intensities
